Test results as given in patent publication US9492468B2, “Methods and compositions for treatment of acute heart failure” (PERICOR THERAPEUTICS, INC., priority 2008, dated 2016).
Structures can show the parent of a compound that is named as a salt.

Test system: dogs with advanced heart failure
Assay: Dose escalation / bolus plus infusion study, hemodynamic and ventriculographic measures
Format: in vivo, dog
Conditions: for Effect on EF (LVEF) / Effect on ESV: dose dependent; for Hemodynamic and ventriculographic benefits after discontinuation: one hour after discontinuation of infusion
Method: Studies were performed in purpose-bred, healthy and conditioned mongrel dogs weighing between 20 and 30 kg. The study was approved by Henry Ford Health System Institutional Animal Care and Use Committee and conformed to the National Institute of Health “Guide and Care for Use of Laboratory Animals” and the “Position of the American Heart Association on Research Animal Use” (Position of the American Heart Association on Research Animal Use. Circulation 1985; 71; 49A-50A).
Chronic LV dysfunction and failure was produced by multiple sequential intracoronary embolizations with polystyrene Latex; coronary microembolizations were performed during cardiac catheterization under general anesthesia and sterile conditions (Sabbah H N, et al. Am J Physiol (1991) 260:H1379-84; Sabbah H N, et al. Circulation (1994) 89:2852-9; Sabbah H N, et al. Am J Cardiol 99:41 A-46A, (2007)). Anesthesia was induced using a combination of intravenous injections of oxymorphone hydrochloride (0.22 mg/kg) and diazepam (0.2-0.6 mg/kg). Plane of anesthesia was maintained throughout the study using 1% to 2% isoflurane. Left and right heart catheterizations were performed via a femoral arteriotomy and venotomy. Coronary microembolizations were discontinued when LV ejection fraction, determined angiographically, was about 25%. A period of 2 weeks was allowed after the last microembolization to ensure that infarctions produced by the last microembolizations have completely healed and heart failure was established before the study is undertaken.
Eight heart failure dogs described in Example 1 were used. Seven of 8 dogs underwent two studies, one with active drug GP-531 tartrate and one with vehicle (placebo) and 1 of 8 dogs underwent only one active drug GP-531 study. The order of active drug and placebo was randomized and performed about one week apart. In 6 of 8 dogs, after baseline hemodynamic, and ventriculographic measurements, vehicle was administered as a continuous intravenous infusion for one hour. At the end of one hour, the active drug GP-531 tartrate was administered in 3 escalating dose of continuous intravenous infusion with each dose maintained for one hour. At the end of the last drug dose, infusion was stopped and a washout period of one hour was instituted. The same infusion rates and times between doses were used when vehicle studies were performed. At the end of each hour, hemodynamic and angiographic measurements were made. Venous blood samples were obtained at baseline and at one hour after each dose. Blood samples (at least 10 mL) were centrifuged at 3000 rpm for 10 minutes and plasma withdrawn and placed in cryostorage tubes and stored upright at −20° C. for future use. In 2 of 8 dogs, active drug was administered as bolus followed by a constant infusion for 3 hours as noted below.
Active drug was used in dog groups as follows:
1. In 3 of 8 dogs, escalating doses of 30, 100 and 300 μg/kg/min GP-531 tartrate were used (Group I)
2. In another 3 of 8 dogs, escalating doses of 3, 10 and 30 μg/kg/min GP-531 tartrate were used (Group II).
3. In 1 of 8 dogs, active drug was administered as 700 μg/kg GP-531 tartrate bolus followed by a constant infusion of 10 μg/kg/min GP-531 tartrate for 3 hours.
4. In another 1 of 8 dogs, two active drug studies were performed. In one study, active drug was administered as 70 μg/kg bolus followed by a constant infusion of 1.0 μg/kg/min for 4 hours and in the second study, active drug was administered as 210 μg/kg bolus followed by a constant infusion of 3.0 μg/kg/min for 4 hours.
Study Primary End-Points were: (1) change in LV ejection fraction determined from ventriculography and (2) change in LV end-systolic and end-diastolic volume determined from ventriculography.
All hemodynamic measurements were made during left and right heart catheterizations in anesthetized dogs at each specified study time point. […]

[1] = Group I HF dogs n=3, iv 30 μg/kg/min, 1 h
[2] = Group I HF dogs n=3, iv 100 μg/kg/min, 1 h
[3] = Group I HF dogs n=3, iv 300 μg/kg/min, 1 h
[4] = Group II HF dogs n=3, iv 3 μg/kg/min, 1 h
[5] = Group II HF dogs n=3, iv 10 μg/kg/min, 1 h
[6] = Group II HF dogs n=3, iv 30 μg/kg/min, 1 h
[7] = 1 HF dog, 210 μg/kg bolus then 3.0 μg/kg/min for 4 h
[8] = 1 HF dog, 210 μg/kg bolus then 3.0 μg/kg/min, end of 4 h
[9] = 1 HF dog, 700 μg/kg bolus then constant infusion 10 m/kg/min (so in the source) for 3 h
[10] = 1 HF dog, 700 μg/kg bolus then constant infusion 10 m/kg/min (so in the source), end of 3 h
[11] = Group I HF dogs n=3, 1 h washout after 30/100/300 μg/kg/min
[12] = Group I HF dogs n=3, escalating 30, 100, 300 μg/kg/min, vs baseline
[13] = Group I HF dogs n=3, escalating 30, 100, 300 μg/kg/min, vs baseline, listed as GP-531 tartrate salt
[14] = Group II HF dogs n=3, 1 h washout after 3/10/30 μg/kg/min
[15] = Group II HF dogs n=3, escalating 3, 10, 30 μg/kg/min, not statistically significant vs baseline
[16] = Group II HF dogs n=3, escalating 3, 10, 30 μg/kg/min, vs baseline

SMILES: NC(=O)c1ncn(C2OC(CNCc3ccccc3)C(O)C2O)c1N [GP-531, 5-amino-1-β-D-(5-benzylamino-5-deoxy-1-β-D-ribofuranosyl)imidazole-4 carboxamide]
- Effect on hemodynamic or ventriculographic measures of LV function (1 HF dog, 70 μg/kg bolus then 1.0 μg/kg/min for 4 h): no effects
- Cardiac output (CO) [1]: 1.90 ± 0.19 L/min
- Heart rate (HR) [1]: 88 ± 9 beats/min
- LV end-diastolic pressure (LVEDP) [1]: 11 ± 1 mmHg
- LV end-diastolic volume (EDV) [1]: 69 ± 6 mL
- LV end-systolic volume (ESV) [1]: 47 ± 4 mL
- Mean aortic pressure (mAoP) [1]: 70 ± 2 mmHg
- Stroke volume (SV) [1]: 22 ± 2 mL
- Systemic vascular resistance (SVR) [1]: 2995 ± 213 dynes-sec-cm^−5
- Cardiac output (CO) [2]: 2.06 ± 0.28 L/min
- Heart rate (HR) [2]: 90 ± 9 beats/min
- LV end-diastolic pressure (LVEDP) [2]: 10 ± 1 mmHg
- LV end-diastolic volume (EDV) [2]: 68 ± 4 mL
- LV end-systolic volume (ESV) [2]: 45 ± 4 mL
- Mean aortic pressure (mAoP) [2]: 69 ± 2 mmHg
- Stroke volume (SV) [2]: 23 ± 1 mL
- Systemic vascular resistance (SVR) [2]: 2792 ± 360 dynes-sec-cm^−5
- Cardiac output (CO) [3]: 2.06 ± 0.22 L/min
- Heart rate (HR) [3]: 88 ± 6 beats/min
- LV end-diastolic pressure (LVEDP) [3]: 11 ± 1 mmHg
- LV end-diastolic volume (EDV) [3]: 68 ± 4 mL
- LV end-systolic volume (ESV) [3]: 44 ± 4 mL
- Mean aortic pressure (mAoP) [3]: 73 ± 3 mmHg
- Stroke volume (SV) [3]: 23 ± 1 mL
- Systemic vascular resistance (SVR) [3]: 2886 ± 67 dynes-sec-cm^−5
- Cardiac output (CO) [4]: 1.47 ± 0.09 L/min
- Heart rate (HR) [4]: 80 ± 2 beats/min
- LV end-diastolic pressure (LVEDP) [4]: 12 ± 1 mmHg
- LV end-diastolic volume (EDV) [4]: 62 ± 2 mL
- LV end-systolic volume (ESV) [4]: 43 ± 2 mL
- Mean aortic pressure (mAoP) [4]: 70 ± 3 mmHg
- Stroke volume (SV) [4]: 18 ± 1 mL
- Systemic vascular resistance (SVR) [4]: 3870 ± 366 dynes-sec-cm^−5
- Cardiac output (CO) [5]: 1.45 ± 0.06 L/min
- Heart rate (HR) [5]: 82 ± 6 beats/min
- LV end-diastolic pressure (LVEDP) [5]: 12 ± 1 mmHg
- LV end-diastolic volume (EDV) [5]: 58 ± 4 mL
- LV end-systolic volume (ESV) [5]: 39 ± 3 mL
- Mean aortic pressure (mAoP) [5]: 65 ± 2 mmHg
- Stroke volume (SV) [5]: 19 ± 1 mL
- Systemic vascular resistance (SVR) [5]: 3379 ± 26 dynes-sec-cm^−5
- Cardiac output (CO) [6]: 1.64 ± 0.06 L/min
- Heart rate (HR) [6]: 80 ± 3 beats/min
- LV end-diastolic pressure (LVEDP) [6]: 12 ± 2 mmHg
- LV end-diastolic volume (EDV) [6]: 57 ± 4 mL
- LV end-systolic volume (ESV) [6]: 36 ± 3 mL
- Mean aortic pressure (mAoP) [6]: 69 ± 3 mmHg
- Stroke volume (SV) [6]: 21 ± 2 mL
- Systemic vascular resistance (SVR) [6]: 3388 ± 235 dynes-sec-cm^−5
- De-novo ventricular arrhythmias (HF dogs, iv 3 to 300 μg/kg/min): without triggering de-novo ventricular arrhythmias
- Hypotension (HF dogs, iv 3 to 300 μg/kg/min): without inducing hypotension

SMILES: NC(=O)c1ncn(C2OC(CNCc3ccccc3)C(O)C2O)c1N (stereo not drawn) [GP-531 tartrate]
- Effect on CO [7]: minimal or modest changes
- Effect on HR [7]: modest reduction
- Effect on LVEDP [7]: modest reduction
- Effect on SV [7]: minimal or modest changes
- Effect on SVR [7]: minimal or modest changes
- Effect on mAoP [7]: modest reduction
- Effect on EDV [8]: essentially no change
- Increase in EF [8]: 44%
- Reduction in ESV [8]: ~20%
- Effect on CO [9]: minimal or modest changes
- Effect on HR [9]: modest reduction
- Effect on LVEDP [9]: substantial drop
- Effect on SV [9]: minimal or modest changes
- Effect on SVR [9]: minimal or modest changes
- Effect on mAoP [9]: modest reduction
- Increase in EF [10]: 30%
- Reduction in EDV [10]: ~10%
- Reduction in ESV [10]: 20%
- Cardiac output (CO) [11]: 1.72 ± 0.17 L/min
- Heart rate (HR) [11]: 85 ± 7 beats/min
- LV end-diastolic pressure (LVEDP) [11]: 13 ± 1 mmHg
- LV end-diastolic volume (EDV) [11]: 70 ± 5 mL
- LV end-systolic volume (ESV) [11]: 49 ± 4 mL
- Mean aortic pressure (mAoP) [11]: 73 ± 6 mmHg
- Stroke volume (SV) [11]: 20 ± 2 mL
- Systemic vascular resistance (SVR) [11]: 3445 ± 310 dynes-sec-cm^−5
- Effect on CO [12]: significant increase
- Effect on EDV [12]: modest and not statistically significant effect on reducing
- Effect on HR [12]: no effect
- Effect on LVEDP [12]: significantly decreased
- Effect on SV [12]: significant increase
- Effect on SVR [12]: decrease
- Effect on mAoP [12]: no effect
- Effect on EF (LVEF) [12]: increased
- Effect on ESV [12]: significantly decreased
- Effect on EF (LVEF) [13]: increase
- Effect on ESV [13]: significant decrease
- Hemodynamic and ventriculographic benefits after discontinuation (Group I HF dogs): attenuated but in many instances remained significantly better than baseline values
- Cardiac output (CO) [14]: 1.50 ± 0.02 L/min
- Heart rate (HR) [14]: 80 ± 5 beats/min
- LV end-diastolic pressure (LVEDP) [14]: 12 ± 1 mmHg
- LV end-diastolic volume (EDV) [14]: 59 ± 4 mL
- LV end-systolic volume (ESV) [14]: 40 ± 2 mL
- Mean aortic pressure (mAoP) [14]: 66 ± 3 mmHg
- Stroke volume (SV) [14]: 19 ± 2 mL
- Systemic vascular resistance (SVR) [14]: 3511 ± 176 dynes-sec-cm^−5
- Effect on CO [15]: modestly increased
- Effect on SV [15]: modestly increased
- Effect on SVR [15]: modestly decreased
- Effect on EDV [16]: no effects
- Effect on HR [16]: no effect
- Effect on LVEDP [16]: significantly decreased
- Effect on mAoP [16]: no effect
- Effect on EF (LVEF) [16]: increased
- Effect on ESV [16]: significantly decreased
- Effect on EF (LVEF) (Group II HF dogs n=3, escalating 3, 10, 30 μg/kg/min, vs baseline, listed as GP-531 tartrate salt): increase
- Hemodynamic and ventriculographic benefits after discontinuation (Group II HF dogs): attenuated but in many instances remained significantly better than baseline values
- Adverse positive chronotropic effects (HF dogs, iv 3 to 300 μg/kg/min): not associated with any adverse positive chronotropic effects
- LV systolic function (HF dogs, iv 3 to 300 μg/kg/min over at least one hour): can improve LV systolic function
- Effect on LVEF (FIG. 3) (bolus injection 700 μg/kg followed by 3 hour constant infusion 10 μg/kg/min): increase
